Test results as given in US9499538B2, “Estrogen receptor modulators and uses thereof” (Seragon Pharmaceuticals, Inc., priority 2012, dated 2016).

What was measured:
MCF-7 cells = assay: Breast Cancer Cell Viability Assays (MCF-7, CellTiter-Glo); format: cell-based; conditions: 5 days' compound exposure; for IC50: Homo sapiens, MCF7, 120 h
Method in brief: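 Percent viability, background-subtracted against untreated wells, was taken from CellTiter-Glo luminescence after 5 days' exposure of MCF-7 cells. Compounds were tested at eleven semilog concentrations, final 0.3–0.000003 μM, in RPMI containing 10% FBS.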

ER-α in MCF-7 cells = target: T1, ER-α in MCF-7 cells (Homo sapiens, UniProt P03372); assay: Breast Cancer Cell ER-α In Cell Western Assay (SP1); format: cell-based; conditions: 4 or 24 hr post compound addition; for Emax: MCF7, SP1 antibody, read-out: ER-α In Cell Western Assay (SP1) Max Response; for DC50: SP1 antibody, read-out: ER-α In Cell Western Assay (SP1) IC50
T1 construct: endogenous in cells; host or cells: MCF-7
T1 sequence (P03372 1-595): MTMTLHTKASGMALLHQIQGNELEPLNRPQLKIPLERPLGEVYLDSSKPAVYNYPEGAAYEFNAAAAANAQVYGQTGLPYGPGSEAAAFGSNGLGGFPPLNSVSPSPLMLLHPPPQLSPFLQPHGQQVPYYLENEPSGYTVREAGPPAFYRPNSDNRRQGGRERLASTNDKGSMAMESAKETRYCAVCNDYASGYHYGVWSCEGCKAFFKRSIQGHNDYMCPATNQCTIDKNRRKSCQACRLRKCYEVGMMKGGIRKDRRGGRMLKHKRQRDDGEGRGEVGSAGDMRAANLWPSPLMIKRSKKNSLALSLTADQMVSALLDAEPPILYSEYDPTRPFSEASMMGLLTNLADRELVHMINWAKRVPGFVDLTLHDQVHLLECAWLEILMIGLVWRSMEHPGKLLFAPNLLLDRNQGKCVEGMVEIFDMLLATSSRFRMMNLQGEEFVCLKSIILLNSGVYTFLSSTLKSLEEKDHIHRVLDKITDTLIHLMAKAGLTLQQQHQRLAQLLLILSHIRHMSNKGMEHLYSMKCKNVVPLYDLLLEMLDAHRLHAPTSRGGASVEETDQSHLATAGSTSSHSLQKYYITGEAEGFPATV
Method in brief: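 ER-α levels quantified by in-cell western: SP1 signal normalised to DRAQ5 DNA stain, relative to untreated cells (% ER). Compounds at 0.3–0.000003 μM final, 11-point semilog series, 4 or 24 h exposure of MCF-7 cells grown in charcoal-stripped serum.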

SMILES | IC50 (MCF-7 cells) | Emax (ER-α in MCF-7 cells) | DC50 (ER-α in MCF-7 cells) | MCF7 Viability Assay Max Response (MCF-7 cells)
CC/C(=C(/c1ccc(/C=C/C(=O)O)cc1)c1cccc2[nH]nc(F)c12)c1ccc(F)cc1Cl [Example 163, (E)-3-(4-((E)-2-(2-Chloro-4-fluorophenyl)-1-(3-fluoro-1H-indazol-4-yl)but-1-en-1-yl)phenyl)acrylic acid] | ≤ 100 nM | ≥ 40% | ≤ 100 nM | ++ (++ = a single % value ≧ 40%)
COc1nc(/C=C/C(=O)O)ccc1/C(=C(\c1ccccc1)C1CCC1)c1ccc2[nH]nc(F)c2c1 [Example 164, (E)-3-(5-((Z)-2-Cyclobutyl-1-(3-fluoro-1H-indazol-5-yl)-2-phenylvinyl)-6-methoxypyridin-2-yl)acrylic acid] | ≤ 100 nM | ≥ 40% | ≤ 100 nM | ++ (++ = a single % value ≧ 40%)
O=C(O)/C=C/c1ccc(/C(=C(\c2ccccc2)C2CCC2)c2ccc3[nH]nc(F)c3c2)c(Cl)c1 [Example 166, (E)-3-(3-Chloro-4-((Z)-2-cyclobutyl-1-(3-fluoro-1H-indazol-5-yl)-2-phenylvinyl)phenyl)acrylic acid] | ≤ 100 nM | ≥ 40% | ≤ 100 nM | ++ (++ = a single % value ≧ 40%)
O=C(O)/C=C/c1ccc(/C(=C(\c2ccccc2Cl)C2CCC2)c2ccc3[nH]nc(F)c3c2)cn1 [Example 169, (E)-3-(5-((Z)-2-(2-Chlorophenyl)-2-cyclobutyl-1-(3-fluoro-1H-indazol-5-yl)vinyl)pyridin-2-yl)acrylic acid] | ≤ 100 nM | ≥ 40% | ≤ 100 nM | ++ (++ = a single % value ≧ 40%)
CC/C(=C(/c1ccc(/C=C/c2nnn[nH]2)cc1)c1ccc2[nH]nc(F)c2c1)c1ccncc1Cl [Example 171, 5-((E)-1-(4-((E)-2-(2H-Tetrazol-5-yl)vinyl)phenyl)-2-(3-chloropyridin-4-yl)but-1-en-1-yl)-3-fluoro-1H-indazole] | ≤ 100 nM | ≥ 40% | ≤ 100 nM | ++ (++ = a single % value ≧ 40%)
Fc1n[nH]c2ccc(/C(=C(/c3ccncc3Cl)C3CCC3)c3ccc(/C=C/c4nnn[nH]4)cc3)cc12 [Example 172, 5-((E)-1-(4-((E)-2-(2H-Tetrazol-5-yl)vinyl)phenyl)-2-(3-chloropyridin-4-yl)-2-cyclobutylvinyl)-3-fluoro-1H-indazole] | ≤ 100 nM | ≥ 40% | ≤ 100 nM | ++ (++ = a single % value ≧ 40%)
Fc1n[nH]c2ccc(/C(=C(/c3ccccc3)C3CCC3)c3ccc(/C=C/c4nnn[nH]4)cc3)cc12 [Example 174, 5-((E)-1-(4-((E)-2-(1H-Tetrazol-5-yl)vinyl)phenyl)-2-cyclobutyl-2-phenylvinyl)-3-fluoro-1H-indazole] | ≤ 100 nM | ≥ 40% | ≤ 100 nM | ++ (++ = a single % value ≧ 40%)
Fc1ccc(/C(=C(\c2ccc(/C=C/c3nnn[nH]3)cc2)c2ccc3scnc3c2)C2CCC2)c(Cl)c1 [Example 175, 5-((E)-1-(4-((E)-2-(2H-Tetrazol-5-yl)vinyl)phenyl)-2-(2-chloro-4-fluorophenyl)-2-cyclobutylvinyl)benzo[d]thiazole] | ≤ 100 nM | ≥ 40% | ≤ 100 nM | ++ (++ = a single % value ≧ 40%)

The next lines start with results.

IC50 (MCF-7 cells) | Emax (ER-α in MCF-7 cells) | DC50 (ER-α in MCF-7 cells) | SMILES | MCF7 Viability Assay Max Response (MCF-7 cells)
> 100 nM | ≥ 40% | > 100 nM | O=C(O)/C=C/c1ncc(/C(=C(\c2ccccc2)C2CCC2)c2ccc3[nH]nc(F)c3c2)cn1 [Example 162, (E)-3-(5-((Z)-2-Cyclobutyl-1-(3-fluoro-1H-indazol-5-yl)-2-phenylvinyl)pyrimidin-2-yl)acrylic acid] | ++ (++ = a single % value ≧ 40%)
> 100 nM | ≥ 40% | ≤ 100 nM | COc1cc(/C(=C(\c2ccccc2)C2CCC2)c2ccc3[nH]nc(F)c3c2)cnc1/C=C/C(=O)O [Example 165, (E)-3-(5-((Z)-2-Cyclobutyl-1-(3-fluoro-1H-indazol-5-yl)-2-phenylvinyl)-3-methoxypyridin-2-yl)acrylic acid] | ++ (++ = a single % value ≧ 40%)
≤ 100 nM | ≥ 40% | ≤ 100 nM | O=C(O)/C=C/c1ccc(/C(=C(\c2ccccc2)C2CCC2)c2ccc3[nH]nc(F)c3c2)cc1Cl [Example 167, (E)-3-(2-Chloro-4-((Z)-2-cyclobutyl-1-(3-fluoro-1H-indazol-5-yl)-2-phenylvinyl)phenyl)acrylic acid] | ++ (++ = a single % value ≧ 40%)
≤ 100 nM | ≥ 40% | ≤ 100 nM | O=C(O)/C=C/c1ccc(/C(=C(\c2ccc(F)cc2Cl)C2CCC2)c2ccc3[nH]nc(F)c3c2)cn1 [Example 168, (E)-3-(5-((Z)-2-(2-Chloro-4-fluorophenyl)-2-cyclobutyl-1-(3-fluoro-1H-indazol-5-yl)vinyl)pyridin-2-yl)acrylic acid] | ++ (++ = a single % value ≧ 40%)
≤ 100 nM | ≥ 40% | ≤ 100 nM | CC/C(=C(/c1ccc(/C=C/c2nnn[nH]2)cc1)c1ccc2[nH]nc(F)c2c1)c1ccc(F)cc1Cl [Example 170, 5-((E)-1-(4-((E)-2-(2H-Tetrazol-5-yl)vinyl)phenyl)-2-(2-chloro-4-fluorophenyl)but-1-en-1-yl)-3-fluoro-1H-indazole] | ++ (++ = a single % value ≧ 40%)
≤ 100 nM | ≥ 40% | ≤ 100 nM | Fc1ccc(/C(=C(\c2ccc(/C=C/c3nnn[nH]3)cc2)c2cccc3[nH]ncc23)C2CCC2)c(Cl)c1 [Example 173, 4-((E)-1-(4-((E)-2-(2H-Tetrazol-5-yl)vinyl)phenyl)-2-(2-chloro-4-fluorophenyl)-2-cyclobutylvinyl)-1H-indazole] | ++ (++ = a single % value ≧ 40%)
≤ 100 nM | ≥ 40% | ≤ 100 nM | Clc1cnccc1/C(=C(\c1ccc(/C=C/c2nnn[nH]2)cc1)c1ccc2scnc2c1)C1CCC1 [Example 176, 5-((E)-1-(4-((E)-2-(2H-Tetrazol-5-yl)vinyl)phenyl)-2-(3-chloropyridin-4-yl)-2-cyclobutylvinyl)benzo[d]thiazole] | ++ (++ = a single % value ≧ 40%)
≤ 100 nM | ≥ 40% | ≤ 100 nM | Cc1cnccc1/C(=C(\c1ccc(/C=C/c2nnn[nH]2)cc1)c1ccc2scnc2c1)C1CCC1 [Example 177, 5-((E)-1-(4-((E)-2-(2H-Tetrazol-5-yl)vinyl)phenyl)-2-cyclobutyl-2-(3-methylpyridin-4-yl)vinyl)benzo[d]thiazole] | ++ (++ = a single % value ≧ 40%)
≤ 100 nM | ≥ 40% | ≤ 100 nM | Fc1ccc(/C(=C(\c2ccc(/C=C/c3nnn[nH]3)cc2)c2ccc3nccn3c2)C2CCC2)c(Cl)c1 [Example 178, 6-((E)-1-(4-((E)-2-(2H-Tetrazol-5-yl)vinyl)phenyl)-2-(2-chloro-4-fluorophenyl)-2-cyclobutylvinyl)imidazo[1,2-a]pyridine] | ++ (++ = a single % value ≧ 40%)
